Test results taken from US9145425B2, “Cephem compound having catechol group” (SHIONOGI & CO., LTD., priority 2010, dated 2015).
≈ marks a conversion by molar mass, not a printed value. Counter-ions that a name gives are not always drawn. Like-named read-outs stand apart in the source and are kept apart here.

Experiments:
[1] = test system: P. aeruginosa SR27001 (multi-resistant Pseudomonas aeruginosa; IMP-1 producing strain); experiment: Antimicrobial activity in vitro (MIC) of the in vivo test compounds; type: cell-based; conditions: addition of Tf
Procedure: (§1) Measurement of Minimum Inhibitory Concentration (MIC, μg/ml) was conducted according to the standard method of the Japan Society for Chemotherapy and the amount of bacteria for inoculation was 1000 cfu/spot, and sensitive disc medium was used as the test medium, and conducted using agar plate incubation.
The antimicrobial activity in vitro (MIC) of the test compounds was determined according to the method of Experimental Example 1.

[2] = test system: P. aeruginosa SR27001 (multi-resistant Pseudomonas aeruginosa; IMP-1 producing strain); experiment: Antimicrobial activity in vivo, mouse intraperitoneal infection, ED50 from survival rate; conditions: Mice (ICR type, male, 5 weeks), intravenous administration in twice from 1.5 h after infection, survival rate after 7 days
Procedure: The antimicrobial activity in vivo of the present compound (I) was determined.
Mice (ICR type, male, 5 weeks) were inoculated intraperitoneally with P. aeruginosa SR27001 (multi-resistant Pseudomonas aeruginosa; IMP-1 producing strain) to raise infection. One and half hours after, mice were treated with intravenious administration in twice, and then the ED50 value was calculated based on the survival rate after 7 days.

[3] = test system: Pseudomonas aeruginosa SR24; experiment: Minimum Inhibitory Concentration (MIC), agar plate incubation, Japan Society for Chemotherapy standard method; type: cell-based
Procedure: (§2) The antimicrobial activity in vitro of the present compound (I) was determined.
as §1
(§3) In the tables, the unit of the values of inhibitory activity is μg/ml.

[4] = test system: Pseudomonas aeruginosa SR27060; experiment: as above; type: cell-based
Procedure: as §2, §1, §3

[5] = test system: Klebsiella pneumoniae ATCC 700603; experiment: as above; type: cell-based
Procedure: as §2, §1, §3

[6] = test system: Acinetobacter baumannii SR24396; experiment: as above; type: cell-based
Procedure: as §2, §1, §3

[7] = test system: Stenotrophomonas maltophilia SR21970; experiment: Minimum Inhibitory Concentration (MIC), agar plate incubation, CLSI method; type: cell-based
Procedure: as §2
Measurement of Minimum Inhibitory Concentration (MIC, μg/ml) was conducted according to the CLSI (Clinical and Laboratory Standards Institute) and the amount of bacteria for inoculation was 10000 cfu/spot, and Mueller-Hinton agar medium was used as the test medium, and conducted using agar plate incubation.
as §3

[8] = Pseudomonas aeruginosa SR24, no enzyme, ceftazidime sensitive strain, 1000 cfu/spot, sensitive disc medium
[9] = Pseudomonas aeruginosa SR27060, IMP-1, MBL producer strain (carbapenem resistant strain), 1000 cfu/spot, sensitive disc medium
[10] = Klebsiella pneumoniae ATCC 700603, SHV-18, ESBL producer strain, 1000 cfu/spot, sensitive disc medium
[11] = Acinetobacter baumannii SR24396, no enzyme, 1000 cfu/spot, sensitive disc medium
[12] = Stenotrophomonas maltophilia SR21970, L-1, MBL producer strain (carbapenem resistant strain), 10000 cfu/spot, Mueller-Hinton agar medium
[13] = Pseudomonas aeruginosa SR24, no enzyme, ceftazidime sensitive strain, 1000 cfu/spot, sensitive disc medium, read-out: Minimum Inhibitory Concentration (MIC)
[14] = Pseudomonas aeruginosa SR27060, IMP-1, MBL producer strain (carbapenem resistant strain), 1000 cfu/spot, sensitive disc medium, read-out: Minimum Inhibitory Concentration (MIC)
[15] = ATCC700603, Klebsiella pneumoniae ATCC 700603, SHV-18, ESBL producer strain, 1000 cfu/spot, sensitive disc medium, read-out: Minimum Inhibitory Concentration (MIC)
[16] = Acinetobacter baumannii SR24396, no enzyme, 1000 cfu/spot, sensitive disc medium, read-out: Minimum Inhibitory Concentration (MIC)
[17] = Stenotrophomonas maltophilia SR21970, L-1, MBL producer strain (carbapenem resistant strain), 10000 cfu/spot, Mueller-Hinton agar medium, read-out: Minimum Inhibitory Concentration (MIC)
[18] = Pseudomonas aeruginosa, read-out: MIC
[19] = Pseudomonas aeruginosa, read-out: ED50

Row | Structure (SMILES) | Minimum Inhibitory Concentration (MIC) [3, 8] | Minimum Inhibitory Concentration (MIC) [4, 9] | Minimum Inhibitory Concentration (MIC) [5, 10] | Minimum Inhibitory Concentration (MIC) [6, 11] | Minimum Inhibitory Concentration (MIC) [7, 12] | MIC [3, 13] | MIC [4, 14] | MIC [5, 15] | MIC [6, 16] | MIC [7, 17] | also measured
1 | CC(C)(ON=C(C(=O)NC1C(=O)N2C(C(=O)[O-])=C(C[N+](C)(C)C3CCN(C(=O)c4ccc(O)c(O)c4Cl)C3)CSC12)c1csc(N)n1)C(=O)[O-].[Na+] (stereo not drawn) [Compound I-20] |  |  |  |  |  |  |  |  |  |  | MIC [1]: 2 µg/mL; ED50 [2]: 5.48 mg/kg
2 | NC(=O)CC(ON=C(C(=O)NC1C(=O)N2C(C(=O)[O-])=C(C[N+]34CCCC3CN(C(=O)c3ccc(O)c(O)c3Cl)CC4)CSC12)c1csc(N)n1)C(=O)[O-].[Na+] (stereo not drawn) [Compound I-38] | 0.125 µg/mL | 2 µg/mL | 1 µg/mL | 0.25 µg/mL | 1 µg/mL |  |  |  |  |  | 
3 | CC(C)(O/N=C(\C(=O)N[C@@H]1C(=O)N2C(C(=O)[O-])=C(C[N+]34CCC(CC3)[C@H](NC(=O)c3ccc(O)c(O)c3Cl)C4)CS[C@H]12)c1csc(N)n1)C(=O)O [Compound I-19] |  |  |  |  |  | 0.125 µg/mL (≈ 0.164 µM) | 0.125 µg/mL (≈ 0.164 µM) | 0.5 µg/mL (≈ 0.654 µM) | 0.125 µg/mL (≈ 0.164 µM) | 0.5 µg/mL (≈ 0.654 µM) | 
4 | N#CC[C@H](O/N=C(\C(=O)N[C@@H]1C(=O)N2C(C(=O)O)=C(C[N@@+]34CC[C@@H](C3)N(C(=O)c3ccc(O)c(O)c3Cl)CC4)CS[C@H]12)c1csc(N)n1)C(=O)[O-] [II-1] |  |  |  |  |  | 0.125 µg/mL (≈ 0.164 µM) | 0.5 µg/mL (≈ 0.657 µM) | 0.25 µg/mL (≈ 0.328 µM) | 0.063 µg/mL (≈ 0.0828 µM) | 2 µg/mL (≈ 2.63 µM) | 
5 | CC(ON=C(C(=O)NC1C(=O)N2C(C(=O)[O-])=C(C[N+]34CCC(CC3)N(C(=O)c3ccc(O)c(O)c3Cl)CC4)CSC12)c1csc(N)n1)C(=O)[O-].[Na+] (stereo not drawn) [Compound I-23] | 0.063 µg/mL | 0.5 µg/mL | 0.5 µg/mL | 0.125 µg/mL | 1 µg/mL |  |  |  |  |  | 
6 | CC(C)(O/N=C(\C(=O)N[C@@H]1C(=O)N2C(C(=O)O)=C(C[N+]3(C)[C@@H]4CC[C@H]3C[C@@H](NC(=O)c3cc(O)c(O)c(F)c3)C4)CS[C@H]12)c1csc(N)n1)C(=O)[O-] (stereo partly drawn) [II-47] |  |  |  |  |  | 0.063 µg/mL (≈ 0.0827 µM) | 0.25 µg/mL (≈ 0.328 µM) | 0.25 µg/mL (≈ 0.328 µM) | 0.25 µg/mL (≈ 0.328 µM) | 0.5 µg/mL (≈ 0.656 µM) | 
7 | CC(ON=C(C(=O)NC1C(=O)N2C(C(=O)[O-])=C(C[N+]34CCC(CNC(=O)c5ccc(O)c(O)c5Cl)(CC3)CC4)CSC12)c1csc(N)n1)C(=O)[O-].[Na+] (stereo not drawn) [Compound I-35] | 0.063 µg/mL | 0.25 µg/mL | 1 µg/mL | 0.5 µg/mL | 1 µg/mL |  |  |  |  |  | 
8 | CC(C)(O/N=C(\C(=O)N[C@@H]1C(=O)N2C(C(=O)[O-])=C(C[N+]3(C)[C@@H]4CC[C@H]3C[C@@H](NC(=O)c3ccc(O)c(O)c3Cl)C4)CS[C@H]12)c1csc(N)n1)C(=O)O (stereo partly drawn) [II-2] |  |  |  |  |  | 0.125 µg/mL (≈ 0.161 µM) | 1 µg/mL (≈ 1.28 µM) | 0.5 µg/mL (≈ 0.642 µM) | 0.25 µg/mL (≈ 0.321 µM) | 2 µg/mL (≈ 2.57 µM) | 
9 | C[C@H](O/N=C(\C(=O)N[C@@H]1C(=O)N2C(C(=O)[O-])=C(C[N+]34CCC[C@H]3CN(C(=O)c3ccc(O)c(O)c3Cl)CC4)CS[C@H]12)c1csc(N)n1)C(=O)[O-].[Na+] (stereo partly drawn) [Compound I-13] |  |  |  |  |  |  |  |  |  |  | MIC [1, 18]: 1 µg/mL; ED50 [2, 19]: 4.22 mg/kg
10 | CC(C)(O/N=C(\C(=O)N[C@@H]1C(=O)N2C(C(=O)[O-])=C(C[N+]3(Cc4nnc(-c5ccc(O)c(O)c5Cl)o4)CCCC3)CS[C@H]12)c1csc(N)n1)C(=O)[O-].[Na+] [Compound I-1] |  |  |  |  |  | 0.063 µg/mL | 0.25 µg/mL | 0.25 µg/mL | 0.25 µg/mL | 1 µg/mL | 
11 | CC(C)(O/N=C(\C(=O)N[C@@H]1C(=O)N2C(C(=O)O)=C(C[N+]3(C)[C@@H]4CC[C@H]3C[C@@H](NC(=O)c3cc(O)c(O)c(Cl)c3)C4)CS[C@H]12)c1csc(N)n1)C(=O)[O-] (stereo partly drawn) [II-50] |  |  |  |  |  |  |  |  |  |  | MIC ([3]; Pseudomonas aeruginosa, SR24, read-out: Minimum Inhibitory Concentration (MIC)): 0.125 µg/mL (≈ 0.161 µM); MIC ([4]; Pseudomonas aeruginosa, SR27060, read-out: Minimum Inhibitory Concentration (MIC)): 0.5 µg/mL (≈ 0.642 µM); MIC ([5]; Klebsiella pneumoniae, ATCC700603, read-out: Minimum Inhibitory Concentration (MIC)): 0.25 µg/mL (≈ 0.321 µM); MIC ([6]; Acinetobacter baumannii, SR24396, read-out: Minimum Inhibitory Concentration (MIC)): 0.25 µg/mL (≈ 0.321 µM); MIC ([7]; Stenotrophomonas maltophilia, SR21970, read-out: Minimum Inhibitory Concentration (MIC)): 0.5 µg/mL (≈ 0.642 µM)
12 | CC(C)(O/N=C(\C(=O)N[C@@H]1C(=O)N2C(C(=O)O)=C(C[N+]3(CCNC(=O)c4cc(O)c(O)c(Cl)c4)CCCC3)CS[C@H]12)c1csc(N)n1)C(=O)[O-] [II-49] |  |  |  |  |  | 0.125 µg/mL (≈ 0.166 µM) | 0.5 µg/mL (≈ 0.665 µM) | 0.125 µg/mL (≈ 0.166 µM) | 0.125 µg/mL (≈ 0.166 µM) | 0.5 µg/mL (≈ 0.665 µM) | 
13 | CC(C)(ON=C(C(=O)NC1C(=O)N2C(C(=O)[O-])=C(C[N+]34CCCC3CN(C(=O)c3ccc(O)c(O)c3Cl)CC4)CSC12)c1csc(N)n1)C(=O)[O-].[Na+] (stereo not drawn) [Compound I-31] | 0.063 µg/mL | 0.5 µg/mL | 1 µg/mL | 0.25 µg/mL | 1 µg/mL |  |  |  |  |  | 
14 | Nc1nc(/C(=N/O[C@@H](CC(=O)[O-])C(=O)[O-])C(=O)N[C@@H]2C(=O)N3C(C(=O)[O-])=C(C[N+]4(CCNC(=O)c5ccc(O)c(O)c5Cl)CCCC4)CS[C@H]23)cs1.[Na+].[Na+] [Compound I-59] | 0.063 µg/mL | 0.25 µg/mL | 0.25 µg/mL | 0.125 µg/mL | 0.5 µg/mL |  |  |  |  |  | 
15 | CCC(ON=C(C(=O)NC1C(=O)N2C(C(=O)[O-])=C(C[N+]34CCCC3CN(C(=O)c3ccc(O)c(O)c3Cl)CC4)CSC12)c1csc(N)n1)C(=O)[O-].[Na+] (stereo not drawn) [Compound I-37] | 0.125 µg/mL | 1 µg/mL | 0.5 µg/mL | 0.125 µg/mL | 1 µg/mL |  |  |  |  |  | 
16 | CC(C)(O/N=C(\C(=O)N[C@@H]1C(=O)N2C(C(=O)O)=C(C[N+]3(C)[C@@H]4CC[C@H]3C[C@@H](NC(=O)c3ccc(O)c(O)c3F)C4)CS[C@H]12)c1csc(N)n1)C(=O)[O-] (stereo partly drawn) [II-36] |  |  |  |  |  | 0.25 µg/mL (≈ 0.328 µM) | 0.5 µg/mL (≈ 0.656 µM) | 0.5 µg/mL (≈ 0.656 µM) | 0.25 µg/mL (≈ 0.328 µM) | 1 µg/mL (≈ 1.31 µM) | 
17 | CO/N=C(\C(=O)N[C@@H]1C(=O)N2C(C(=O)[O-])=C(C[N+]3(C)CCCC3)CS[C@H]12)c1csc(N)n1 [CFPM, cefepime hydrochloride hydrate, reference compound] |  |  |  |  |  |  |  |  |  |  | MIC [1, 18]: > 64 µg/mL; ED50 [2, 19]: > 100 mg/kg
18 | CC[C@H](O/N=C(\C(=O)N[C@@H]1C(=O)N2C(C(=O)O)=C(C[N+]34CCC(CNC(=O)c5ccc(O)c(O)c5Cl)(CC3)CC4)CS[C@H]12)c1csc(N)n1)C(=O)[O-] [II-59] |  |  |  |  |  | 0.25 µg/mL (≈ 0.321 µM) | 0.5 µg/mL (≈ 0.642 µM) | 0.5 µg/mL (≈ 0.642 µM) | 0.125 µg/mL (≈ 0.161 µM) | 1 µg/mL (≈ 1.28 µM) | 
